Assay results reported in patent US20040110676A1, “Methods for modulating cell survival” (priority 2000, published 2004).

Legend:
[1] = test system: immunoprecipitated recombinant protein containing the N-terminal one-third of htt
[2] = test system: recombinant N-terminal one-third of htt with serine 421 mutated to alanine (S421A)
spermatogenic cells = test: Testicular histology, ultrastructure and TUNEL labeling; type: in vivo; conditions: endogenous htt expression increased to 100% of normal levels
Experimental: Testes were removed from anesthetized animals and immediately placed in fixative (1.5% paraformaldehyde, 1.5% glutaraldehyde, 0.1 M Na cacodylate, pH 7.3). The capsules were nicked with a scalpel and then the organs left to fix for approximately 1 hour. The testes were cut into small pieces and fixed for an additional hour. The pieces were washed with buffer, post-fixed in buffered 1% OSO4 on ice for 1 hour, washed with dH2O, and stained en bloc in 1% aqueous uranyl acetate. The samples were washed with dH2O, dehydrated through a graded concentration series of ethyl alcohols, and then embedded in JEMBED™812 (J. B. EM Services Inc., Point-Claire, Quebec).
For histological analysis, thick sections (1 μm) were stained with toluidine blue and evaluated on a Zeiss Axiophot microscope. For ultrastructural analysis, thin sections were cut on an ultramicrotome, stained with lead citrate and uranyl acetate, and then viewed and photographed on a Philips 300 electron microscope operated at 60 kV.
TUNEL™ labeling (Boehringer Mannheim) was performed using standard techniques on frozen sections of testes that were lightly immersion fixed in 3% paraformaldehyde. […]
The cellular effect of the htt expression was determined by analyzing the testicular morphology of YAC rescued htt knockout mice. […]
TUNEL™ staining was used to quantitate apoptosis in the YAC rescued transgenic mice. […]

AKT = AKT (Homo sapiens, UniProt P31749); test: In vitro kinase reaction, phosphorylation of htt by AKT (autoradiography); type: biochemical; conditions: S421A-mutant N-terminal one-third of htt as substrate, compared with wild-type, purified recombinant active AKT
Text: Serine 421 of huntingtin can be phosphorylated by purified recombinant active AKT in vitro (FIG. 18). Immunoprecipitated recombinant protein containing the N-terminal one-third of htt was used as a substrate for AKT. Phosphorylation was detected by autoradiography since radiolabelled ATP was a component of the in vitro kinase reaction. When serine 421 was mutated to alanine (S421A), a non-phosphorylatable amino acid, 64% of the phosphorylation signal on huntingtin was ablated. […] Other sites for AKT phosphorylation are threonines 1024 and 2068.

HBL-100 cells = test: Anoikis assay on poly-HEMA coated plates, annexin-V-FITC/PI; type: cell-based, human
Text: The human breast cell line HBL-100, transformed by the SV40 virus large T antigen with epithelial like morphology, was used to investigate the importance of the huntingtin serine residue at position 421 with respect to phosphorylation towards anoikis resistant, anchorage independent cell growth. HBL-100 cells were transfected with a 3949-15wt huntingtin vector construct, or a similar vector in which the normal serine at position 421 was mutated to an alanine residue. This mutation prevents phosphorylation from occurring at that site, which is presumed to be mediated by the kinase AKT/PKB. Cells were cultured in DMEM with 5% serum for 24 hours either on untreated tissue culture plastic or on poly-HEMA-coated plastic plates. Cells were harvested, counted and viability was assessed via annexin-V-FITC and propidium iodide (PI) staining.
HBL-100 cells were transiently transfected with a FLAG-tagged 3949-15wt htt, or a FLAG-tagged (S-A) unphosphorylatable mutant htt. Wild-type cells were also treated with LY294002, a specific PI-3 kinase inhibitor, at a concentration of 10 μM, to determine whether inhibition of kinase function could abrogate the induction of anoikis. Western blot analysis confirming the expression of both full length and 3949 huntingtin in the FLAG-tagged constructs (FIG. 26B). The presence of endogenous huntingtin in the parental cells is also shown. […]

NT2 cells [3] = test: Mutant htt (HD138)-induced cell death, apoptotic morphology scoring; type: cell-based, human; conditions: NT2 cells co-transfected with HD138, tamoxifen stimulus, vs pyruvate kinase control, p=0.002
Experimental: Mutant htt protein (HD138) was co-transfected with control protein, pyruvate kinase (PK), or with htt C-terminus (C-ter) into NT2 cells (a human neuronal precursor cell line) at 40% density using lipofectamine (GibcoBRL), and cell death in response to tamoxifen stimulus was measured. Cell death was quantified in NT2 cells by co-transfection of the expression constructs with a plasmid containing the LacZ gene at a 4:1 ratio, and the cells were stained for β-galactosidase activity at 24 hours post-transfection using standard procedures. The survival effect of the htt protein was assessed by incubating transfected cells with the pro-apoptotic drug tamoxifen for 4 hrs at various concentrations. An apoptotic morphology was scored as blue-staining cells that were rounded up, blebbed and condensed, which were clearly distinguished from viable cells that were flat and had neurite-like extensions. The cell death data was analyzed for statistical significance using one-way ANOVA and Newman-Keuls post-comparison tests.

HEK 293T cells = test: MTT (WST-1) cell viability assay, tamoxifen-induced cell death; type: cell-based, human; conditions: transfected HEK 293T cells, tamoxifen 4 hours, compared with LacZ control
Experimental: The survival effect of htt was measured in vitro using the MTT assay, in which a reduction in mitochondrial viability is indicative of cell death. Human embryonic kidney (HEK) 293T cells were seeded at a density of 5×10^4 cells into 96-well plates and transfected with 0.1 μg htt or LacZ DNA using a standard calcium phosphate protocol (Hackam et al. (1998) J Cell Biol. 141: 1097-105). Transfected cells in 96-well plates were treated at 48 hours post-transfection with a various concentrations of tamoxifen, a cell permeable compound that leads to caspase activation and cell death, for 4 hours. Cell viability was measured, […], by incubating the cells for 2 hours in a 1:10 dilution of WST-1 reagent (Boehringer Mannheim) and release of formazan from mitochondria was quantified by the MTT assay at 450 nm using an ELISA plate reader (Dynatech Laboratories). Mock transfected, vector only and LacZ transfected cells served as controls for transfection-related toxicity. Statistical analyses of the cell death data were performed using one-way ANOVA and Newman-Keuls post-comparison tests.

NT2 cells [4] = test: HIP-1-induced cell death, morphology scoring; type: cell-based, human; conditions: NT2 cells co-transfected with HIP-1, vs control protein PK, p<0.01
Experimental: HIP-1-induced toxicity was used to assess whether the C-terminus of htt confers protection against a toxic protein-mediated cell death, in addition to its effect on tamoxifen-induced death. NT2 cells were co-transfected with mutant HIP-1 and the C-terminus, or HIP-1 and the control pyruvate kinase cDNA, using lipofectamine (GibcoBRL). Cell death was measured by morphological changes using co-transfection of a plasmid containing the LacZ gene, as described herein. […] Thus, the protective activity of htt C-terminus may have a functional role in HIP-1-mediated cell death in vivo.

[5] = test system: truncated mutant htt with 128 CAG repeats in HEK 293T cells; test: Mutant htt aggregate formation, immunofluorescence; type: cell-based, human; conditions: vs LacZ control
Experimental: The C-terminus of htt was co-transfected with mutant htt and aggregate formation was induced with tamoxifen or HIP-1 expression as described herein. HEK 293T cells were transfected with truncated mutant htt with 128 CAG repeats and processed for immunofluorescence by growing cells on glass coverslips and transfecting at 30% confluency using a standard calcium phosphate protocol. At 48 hours post-transfection, the cells were treated with 35 μM tamoxifen (Sigma) for 1 hour to induce aggregate formation, then processed for immunofluorescence. The cells were fixed in 4% paraformaldehyde/PBS, permeabilised in 0.5% Triton X-100/PBS for 5 min, then incubated with anti-htt antibody MAB2166 (Chemicon) (1:2500 dilution) diluted in 0.4% BSA/PBS. Secondary antibodies conjugated to FITC (Jackson Laboratories) were used at 1:600-1:800 dilutions, and DAPI (4′,6′-diamindino-2-phenylindole, Sigma) was used as a nuclear counter-stain. Appropriate control experiments were performed to determine the specificity of the antibodies, including secondary antibody only and mock transfected cells. The cells were viewed with a Zeiss (Axioscope) microscope, digitally captured with a CCD camera (Princeton Instrument Inc.) and the images were colourised and overlapped using the Eclipse (Empix Imaging Inc.) software program. […]

recombinant N-terminal one-third of htt with serine 421 mutated to alanine (S421A), sequence (chain, as listed by the source S421A): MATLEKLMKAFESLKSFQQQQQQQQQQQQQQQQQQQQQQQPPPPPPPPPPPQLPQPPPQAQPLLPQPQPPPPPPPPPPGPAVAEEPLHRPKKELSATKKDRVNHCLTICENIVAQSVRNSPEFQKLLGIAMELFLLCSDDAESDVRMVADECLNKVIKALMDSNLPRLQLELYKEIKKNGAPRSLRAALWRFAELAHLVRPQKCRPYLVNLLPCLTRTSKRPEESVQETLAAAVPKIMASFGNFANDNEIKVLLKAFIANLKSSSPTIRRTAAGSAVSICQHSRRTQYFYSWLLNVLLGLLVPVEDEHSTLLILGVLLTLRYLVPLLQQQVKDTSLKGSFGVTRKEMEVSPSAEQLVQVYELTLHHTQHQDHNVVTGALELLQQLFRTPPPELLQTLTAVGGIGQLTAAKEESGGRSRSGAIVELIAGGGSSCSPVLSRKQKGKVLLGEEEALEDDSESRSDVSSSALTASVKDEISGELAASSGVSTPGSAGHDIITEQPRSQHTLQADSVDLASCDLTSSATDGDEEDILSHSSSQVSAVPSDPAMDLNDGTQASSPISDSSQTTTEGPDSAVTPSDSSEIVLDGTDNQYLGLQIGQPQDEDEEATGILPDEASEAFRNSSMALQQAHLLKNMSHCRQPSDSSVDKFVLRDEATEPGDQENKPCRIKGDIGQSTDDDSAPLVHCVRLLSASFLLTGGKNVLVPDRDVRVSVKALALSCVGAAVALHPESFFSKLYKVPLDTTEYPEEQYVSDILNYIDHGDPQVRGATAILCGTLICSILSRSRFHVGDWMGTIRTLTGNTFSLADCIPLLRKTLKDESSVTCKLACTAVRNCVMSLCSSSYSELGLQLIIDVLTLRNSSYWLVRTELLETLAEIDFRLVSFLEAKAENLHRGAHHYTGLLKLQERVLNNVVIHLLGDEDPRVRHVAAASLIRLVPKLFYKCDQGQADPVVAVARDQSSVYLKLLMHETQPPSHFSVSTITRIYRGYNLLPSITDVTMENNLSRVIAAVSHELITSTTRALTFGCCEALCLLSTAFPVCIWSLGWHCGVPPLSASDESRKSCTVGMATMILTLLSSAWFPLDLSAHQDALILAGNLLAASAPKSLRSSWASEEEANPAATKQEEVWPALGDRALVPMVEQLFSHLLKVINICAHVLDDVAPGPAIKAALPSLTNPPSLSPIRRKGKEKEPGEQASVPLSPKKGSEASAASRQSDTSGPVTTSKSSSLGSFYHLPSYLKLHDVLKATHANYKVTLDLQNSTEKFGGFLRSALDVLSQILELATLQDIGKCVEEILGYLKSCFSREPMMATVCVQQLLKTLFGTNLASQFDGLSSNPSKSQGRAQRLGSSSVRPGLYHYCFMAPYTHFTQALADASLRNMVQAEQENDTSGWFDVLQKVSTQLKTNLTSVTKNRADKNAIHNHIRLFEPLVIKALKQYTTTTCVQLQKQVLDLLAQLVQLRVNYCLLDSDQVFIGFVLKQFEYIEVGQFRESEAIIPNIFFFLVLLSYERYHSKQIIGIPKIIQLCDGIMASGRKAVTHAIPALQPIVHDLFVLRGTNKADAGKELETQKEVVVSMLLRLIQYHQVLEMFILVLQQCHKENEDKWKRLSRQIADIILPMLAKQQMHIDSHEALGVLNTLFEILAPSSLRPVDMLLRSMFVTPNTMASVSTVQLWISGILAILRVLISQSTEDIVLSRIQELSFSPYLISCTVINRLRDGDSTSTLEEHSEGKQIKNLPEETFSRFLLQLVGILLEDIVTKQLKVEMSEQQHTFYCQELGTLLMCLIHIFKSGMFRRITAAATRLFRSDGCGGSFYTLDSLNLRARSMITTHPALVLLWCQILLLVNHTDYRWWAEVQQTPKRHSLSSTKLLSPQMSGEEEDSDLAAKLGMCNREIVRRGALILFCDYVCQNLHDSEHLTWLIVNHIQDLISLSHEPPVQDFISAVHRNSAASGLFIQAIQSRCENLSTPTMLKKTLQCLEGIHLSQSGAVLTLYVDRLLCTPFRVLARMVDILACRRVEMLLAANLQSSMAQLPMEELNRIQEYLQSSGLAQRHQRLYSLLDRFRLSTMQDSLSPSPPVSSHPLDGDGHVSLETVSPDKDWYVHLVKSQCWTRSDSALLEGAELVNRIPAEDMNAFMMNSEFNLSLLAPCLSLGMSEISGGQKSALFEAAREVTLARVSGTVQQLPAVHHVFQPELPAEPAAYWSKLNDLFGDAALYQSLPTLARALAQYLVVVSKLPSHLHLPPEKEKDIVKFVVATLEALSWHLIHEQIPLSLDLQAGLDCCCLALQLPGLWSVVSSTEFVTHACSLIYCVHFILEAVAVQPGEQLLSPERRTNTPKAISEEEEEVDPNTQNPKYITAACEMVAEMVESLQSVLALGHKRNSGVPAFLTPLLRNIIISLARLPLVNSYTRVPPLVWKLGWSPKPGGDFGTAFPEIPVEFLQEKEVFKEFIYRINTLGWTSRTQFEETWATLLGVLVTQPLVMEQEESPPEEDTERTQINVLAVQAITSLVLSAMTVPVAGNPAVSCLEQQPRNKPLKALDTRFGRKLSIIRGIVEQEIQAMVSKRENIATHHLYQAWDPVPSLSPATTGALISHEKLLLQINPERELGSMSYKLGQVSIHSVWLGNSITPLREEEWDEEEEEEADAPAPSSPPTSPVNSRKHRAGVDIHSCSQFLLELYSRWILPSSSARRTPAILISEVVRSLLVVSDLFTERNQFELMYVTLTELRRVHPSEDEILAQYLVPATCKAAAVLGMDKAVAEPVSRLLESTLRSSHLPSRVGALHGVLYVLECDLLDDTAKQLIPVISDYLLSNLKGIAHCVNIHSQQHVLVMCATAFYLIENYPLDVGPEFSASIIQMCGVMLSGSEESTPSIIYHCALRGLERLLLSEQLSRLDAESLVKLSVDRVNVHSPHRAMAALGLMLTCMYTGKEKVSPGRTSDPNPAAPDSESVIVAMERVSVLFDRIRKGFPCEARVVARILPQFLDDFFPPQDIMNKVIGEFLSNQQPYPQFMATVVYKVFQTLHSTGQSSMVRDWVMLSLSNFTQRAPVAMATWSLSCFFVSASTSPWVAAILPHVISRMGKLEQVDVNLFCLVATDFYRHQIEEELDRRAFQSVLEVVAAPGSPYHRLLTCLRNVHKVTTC
immunoprecipitated recombinant protein containing the N-terminal one-third of htt, sequence (chain, as listed by the source): as the sequence (chain, as listed by the source S421A) above, with A421S counted along it
AKT, sequence (P31749 whole entry): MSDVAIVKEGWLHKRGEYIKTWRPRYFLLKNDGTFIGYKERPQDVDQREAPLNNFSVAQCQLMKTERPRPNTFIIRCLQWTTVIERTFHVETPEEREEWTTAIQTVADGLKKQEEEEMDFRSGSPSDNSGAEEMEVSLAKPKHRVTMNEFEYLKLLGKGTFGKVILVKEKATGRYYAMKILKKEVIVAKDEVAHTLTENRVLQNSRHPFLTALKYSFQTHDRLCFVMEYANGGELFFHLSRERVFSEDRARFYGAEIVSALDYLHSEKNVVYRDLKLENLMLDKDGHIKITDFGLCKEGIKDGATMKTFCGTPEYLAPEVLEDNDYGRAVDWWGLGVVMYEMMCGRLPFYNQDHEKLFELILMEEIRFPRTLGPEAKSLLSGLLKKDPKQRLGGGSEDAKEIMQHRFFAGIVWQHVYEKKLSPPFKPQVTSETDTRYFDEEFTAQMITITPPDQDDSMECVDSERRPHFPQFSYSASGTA

## purified recombinant active AKT
[1]
  phosphorylation detected by autoradiography (in vitro kinase reaction with radiolabelled ATP): Serine 421 of huntingtin can be phosphorylated by purified recombinant active AKT in vitro
[2]
  phosphorylation signal ablated (autoradiography, in vitro kinase reaction): 64% of the phosphorylation signal on huntingtin was ablated

## endogenous htt: murine wild-type htt expressed from the Hdh gene
Spermatogenic cells
  effect on degenerative testicular phenotype of YAC72 mice: completely rescued the degenerative testicular phenotype

## S421A: htt with serine 421 replaced by alanine, unphosphorylatable
AKT
  phosphorylation signal on huntingtin ablated: 64%
HBL-100 cells; HBL-100 cells transiently transfected with FLAG-tagged constructs, LY294002 10 μM
  anoikis resistant growth in detached state (kinase inhibition study): grew poorly in a detached state
HBL-100 cells; transfected HBL-100 cells, 24 hours, poly-HEMA
  anoikis resistance, growth attached or detached: behaved similarly to untransfected cells

## htt C-terminus: C-terminal fragment of huntingtin, e.g. amino acids 585-3144 of SEQ ID NO: 1, expressed by transfection
NT2 cells [3]
  HD138-dependent cell death: reduced HD138-dependent cell death
HEK 293T cells
  tamoxifen-induced cell death (mitochondrial viability): protects HEK 293T cells from tamoxifen-induced cell death
NT2 cells [4]
  HIP-1 mediated cell death: reduced HIP-1 mediated cell death
[5]; aggregates induced by HIP-1 expression
  number of aggregates formed by truncated mutant htt (1955-128): reduces the number of aggregates
[5]; aggregates induced by tamoxifen stimulus (35 μM, 1 hour)
  number of aggregates formed by truncated mutant htt (1955-128): reduces the number of aggregates
